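48-hour exposure; five concentrations; linearly interpolated endpoints. Abbreviation: GI50, concentration required for 50% inhibition of growth. TGI: total growth inhibition.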
Columns and labels:
Assay in all cases: NCI-60 cell line screen, 48 h; in the data active = GI50 below about 0.43 µM; inactive = the rest
SNB-19 CNS = system: SNB-19 CNS
M14 melanoma = system: M14 melanoma
HCT-15 colon = system: HCT-15 colon
786-0 renal = system: 786-0 renal
UACC-62 melanoma = system: UACC-62 melanoma
SK-MEL-5 melanoma = system: SK-MEL-5 melanoma
HCT-116 colon = system: HCT-116 colon
A549 NSCLC = system: A549 NSCLC
OVCAR-4 ovarian = system: OVCAR-4 ovarian
T-47D breast = system: T-47D breast
U251 CNS = system: U251 CNS
UO-31 renal = system: UO-31 renal
SK-MEL-28 melanoma = system: SK-MEL-28 melanoma
TK-10 renal = system: TK-10 renal
OVCAR-3 ovarian = system: OVCAR-3 ovarian
OVCAR-8 ovarian = system: OVCAR-8 ovarian
HCC-2998 colon = system: HCC-2998 colon
COLO 205 colon = system: COLO 205 colon
PC-3 prostate = system: PC-3 prostate
MCF7 breast = system: MCF7 breast
SF-539 CNS = system: SF-539 CNS
SK-MEL-2 melanoma = system: SK-MEL-2 melanoma
HOP-92 NSCLC = system: HOP-92 NSCLC
LOX IMVI melanoma = system: LOX IMVI melanoma
CAKI-1 renal = system: CAKI-1 renal
SN12C renal = system: SN12C renal
SW-620 colon = system: SW-620 colon
MDA-MB-231 breast = system: MDA-MB-231 breast
SR leukemia = system: SR leukemia
KM12 colon = system: KM12 colon
NCI-H23 lung = system: NCI-H23 lung
UACC-257 melanoma = system: UACC-257 melanoma
BT-549 breast = system: BT-549 breast
K-562 leukemia = system: K-562 leukemia
RPMI-8226 leukemia = system: RPMI-8226 leukemia
SK-OV-3 ovarian = system: SK-OV-3 ovarian
MOLT-4 leukemia = system: MOLT-4 leukemia
IGROV1 ovarian = system: IGROV1 ovarian
SF-268 CNS = system: SF-268 CNS
HT29 colon = system: HT29 colon
OVCAR-5 ovarian = system: OVCAR-5 ovarian
MALME-3M melanoma = system: MALME-3M melanoma
HS 578T breast = system: HS 578T breast
DU-145 prostate = system: DU-145 prostate
HOP-62 NSCLC = system: HOP-62 NSCLC
A498 renal = system: A498 renal
SNB-75 CNS = system: SNB-75 CNS
NCI-H460 lung = system: NCI-H460 lung
NCI/ADR-RES ovarian = system: NCI/ADR-RES ovarian
NCI-H226 lung = system: NCI-H226 lung
ACHN renal = system: ACHN renal
HL-60(TB) leukemia = system: HL-60(TB) leukemia
CCRF-CEM leukemia = system: CCRF-CEM leukemia
SF-295 CNS = system: SF-295 CNS
NCI-H522 lung = system: NCI-H522 lung
EKVX NSCLC = system: EKVX NSCLC

CCc1cccc2c3c(sc12)C(c1ccc(F)cc1)C(C#N)=C(/N=C/c1ccc(Cl)cc1)O3 (configuration not stated)
18000 nM: TGI (SK-MEL-5 melanoma)
inactive: GI50 (SNB-19 CNS) 988 nM | GI50 (786-0 renal) 661 nM | GI50 (A549 NSCLC) 506 nM | GI50 (OVCAR-4 ovarian) 97600 nM | GI50 (T-47D breast) 450 nM | GI50 (UO-31 renal) 553 nM | GI50 (SK-MEL-28 melanoma) 492 nM | GI50 (TK-10 renal) 6800 nM | GI50 (OVCAR-3 ovarian) 709 nM | GI50 (OVCAR-8 ovarian) 500 nM | GI50 (HCC-2998 colon) 1140 nM | GI50 (PC-3 prostate) 501 nM | GI50 (HOP-92 NSCLC) 22400 nM | GI50 (LOX IMVI melanoma) 576 nM | GI50 (SN12C renal) 430 nM | GI50 (SW-620 colon) 471 nM | GI50 (KM12 colon) 701 nM | GI50 (NCI-H23 lung) 578 nM | GI50 (UACC-257 melanoma) 43400 nM | GI50 (BT-549 breast) 2050 nM | GI50 (MOLT-4 leukemia) 519 nM | GI50 (IGROV1 ovarian) 498 nM | GI50 (SF-268 CNS) 6260 nM | GI50 (DU-145 prostate) 579 nM | GI50 (A498 renal) > 100000 nM | GI50 (NCI-H460 lung) 427 nM | GI50 (ACHN renal) 824 nM | GI50 (EKVX NSCLC) 488 nM
80200 nM: TGI (HS 578T breast)
78000 nM: TGI (SK-MEL-2 melanoma)
381 nM: TGI (NCI-H522 lung)
683 nM: TGI (NCI/ADR-RES ovarian)
active: GI50 (M14 melanoma) 335 nM | GI50 (HCT-15 colon) 355 nM | GI50 (UACC-62 melanoma) 352 nM | GI50 (SK-MEL-5 melanoma) 319 nM | GI50 (HCT-116 colon) 383 nM | GI50 (U251 CNS) 369 nM | GI50 (COLO 205 colon) 373 nM | GI50 (MCF7 breast) 392 nM | GI50 (SF-539 CNS) 208 nM | GI50 (SK-MEL-2 melanoma) 325 nM | GI50 (CAKI-1 renal) 149 nM | GI50 (MDA-MB-231 breast) 364 nM | GI50 (SR leukemia) 402 nM | GI50 (K-562 leukemia) 128 nM | GI50 (RPMI-8226 leukemia) 387 nM | GI50 (SK-OV-3 ovarian) 412 nM | GI50 (HT29 colon) 323 nM | GI50 (OVCAR-5 ovarian) 421 nM | GI50 (MALME-3M melanoma) 384 nM | GI50 (HS 578T breast) 255 nM | GI50 (HOP-62 NSCLC) 312 nM | GI50 (SNB-75 CNS) 376 nM | GI50 (NCI/ADR-RES ovarian) 192 nM | GI50 (NCI-H226 lung) 379 nM | GI50 (HL-60(TB) leukemia) 222 nM | GI50 (CCRF-CEM leukemia) 324 nM | GI50 (SF-295 CNS) 278 nM | GI50 (NCI-H522 lung) 66 nM
649 nM: TGI (HL-60(TB) leukemia)
7840 nM: TGI (BT-549 breast)
45900 nM: TGI (NCI-H226 lung)
34200 nM: TGI (U251 CNS)
19800 nM: TGI (SR leukemia)
648 nM: TGI (SF-539 CNS)
2950 nM: TGI (COLO 205 colon)
79800 nM: TGI (SNB-75 CNS)
36500 nM: TGI (HT29 colon)
44200 nM: TGI (CCRF-CEM leukemia)
> 100000 nM: TGI (SNB-19 CNS) | TGI (M14 melanoma) | TGI (HCT-15 colon) | TGI (786-0 renal) | TGI (UACC-62 melanoma) | TGI (HCT-116 colon) | TGI (A549 NSCLC) | TGI (OVCAR-4 ovarian) | TGI (T-47D breast) | TGI (UO-31 renal) | TGI (SK-MEL-28 melanoma) | TGI (TK-10 renal) | TGI (OVCAR-3 ovarian) | TGI (OVCAR-8 ovarian) | TGI (HCC-2998 colon) | TGI (PC-3 prostate) | TGI (MCF7 breast) | TGI (HOP-92 NSCLC) | TGI (LOX IMVI melanoma) | TGI (CAKI-1 renal) | TGI (SN12C renal) | TGI (SW-620 colon) | TGI (MDA-MB-231 breast) | TGI (KM12 colon) | TGI (NCI-H23 lung) | TGI (UACC-257 melanoma) | TGI (K-562 leukemia) | TGI (RPMI-8226 leukemia) | TGI (SK-OV-3 ovarian) | TGI (MOLT-4 leukemia) | TGI (IGROV1 ovarian) | TGI (SF-268 CNS) | TGI (OVCAR-5 ovarian) | TGI (MALME-3M melanoma) | TGI (DU-145 prostate) | TGI (HOP-62 NSCLC) | TGI (A498 renal) | TGI (NCI-H460 lung) | TGI (ACHN renal) | TGI (SF-295 CNS) | TGI (EKVX NSCLC)

— PubChem BioAssay (NCI)
